Where two headings read alike, the source gives them in different places.
Legend:
[1] = system: HUTU-80 human duodenal adenocarcinoma cell line; assay: Cell saturation binding assay, HUTU-80; details: 68Ga-labeled compound
Procedure: (1) For the cell saturation binding assay, a total of 8 radiolabeled ligand concentrations were set at intervals within the anticipated range. For each concentration, there were 3 groups: the non-inhibition group, the first single inhibition group (FAP single inhibition group), and the second single inhibition group (CXCR4/GRPR/αvβ3 single inhibition group). For each concentration and each group, 3 replicate wells were established.
(§1) (2) Cells were plated into a 24-well plate according to the cell plating procedure described above.
(3) The original culture medium was removed from the 24-well plate. Then, 400 μL of 100 mg/mL skimmed milk solution was added to each well for blocking for one hour. After removing the skimmed milk solution, each of wells was washed three times by adding 400 μL of PBS solution. Subsequently, 146 μL of FBS-free medium was added to each well. Next, the non-inhibition group received 4 μL of cold PBS per well, while the first single inhibition group and the second single inhibition group received the following additions per well according to Table 4: 2 μL of non-radiolabeled first single inhibitor solution and 2 μL of cold PBS; 2 μL of non-radiolabeled second single inhibitor solution and 2 μL of cold PBS. The plate was then incubated at room temperature for one hour.
(4) The ligands were radiolabeled with 68Ga using the labeling method described previously. Different volumes of FBS-free medium were added to formulate the radioligand systems at corresponding concentrations. Then, 50 μL of the corresponding concentration of the radioligand system was added to each well.
(5) The supernatant was removed, and the wells were washed three times with 400 μL of PBS. 200 μL of IM NaOH solution was added to each well for cell lysis. […] Each well was washed once with 400 μL of PBS solution, and the washings were sequentially added to the corresponding radioimmunoassay tubes.
(6) Radioactivity in the cells was measured using a γ counter. The equilibrium dissociation constant (KD) was obtained by fitting the curve using nonlinear regression analysis in GraphPad Prism software. KD is the drug concentration that causes half of the maximum effect (50% receptor occupancy).

[2] = system: HUTU-80 human duodenal adenocarcinoma cell line; assay: Cell uptake and inhibition assay, HUTU-80; type: cell-based
Procedure: The cell lines involved in the cell experiments in the test examples include: SUM149PT human breast cancer cell line, HUTU-80 human duodenal adenocarcinoma cell line, and U-118 MG human brain astrocytoma/glioblastoma cell line.
HUTU-80: Complete medium was formulated using DMEM high-glucose medium, 10% FBS, and a penicillin-streptomycin solution. The cells were cultured in a constant temperature incubator at 37° C. with 5% CO2. The culture medium was regularly replaced, and the cells were passaged. The culture medium was generally changed every 2 to 3 days. The growth of the tumor cells was observed daily under a microscope, including monitoring cell growth status, checking for adherence, examining cell morphology for any abnormalities, checking for contamination, and observing medium color for any abnormalities. Cells were passaged when they reached 80-90% confluence.
When cell confluence in the culture flask reached 80%, the cells were digested and centrifuged, and the supernatant was removed. An appropriate amount of medium was added to dilute so that each well contained 500 μL of medium for plating. After thorough mixing by pipetting, the cell suspension was seeded into a 24-well plate at a density of 5×10^5 cells per well. The plate was then placed into the incubator for continued growth. The cells were ready for cellular experiments when they reached 80% confluence.
(1) The cell uptake assay established four incubation time points: 15, 30, 60, and 120 minutes, respectively. For each time point, four groups were set up: non-inhibition group, a first single inhibition group (FAP single inhibition), a second single inhibition group (CXCR4/GRPR/αvβ3 single inhibition), and a dual inhibition group (FAP inhibitor+CXCR4/GRPR/αvβ3 inhibitor). Each group at each time point was set up with 3 triplicate wells.
as §1
(3) The original culture medium was removed from the 24-well plate. Then, 400 μL of 100 mg/mL skimmed milk solution was added to each well for blocking for one hour. After removing the skimmed milk solution, each of the wells was washed three times by adding 400 μL of PBS solution. Subsequently, 146 μL of FBS-free medium was added to each well. […]
(6) The radioactivity in the cells was measured using a γ counter. […]

[3] = Isoelectric point (PI) measurement; type: physicochemical; details: unlabeled compound

In the case of `CC(C)CC(CC(C)C)NC(=O)[C@H](Cc1cnc[nH]1)NC(=O)CNC(=O)C(NC(=O)[C@H](C)NC(=O)[C@H](Cc1c[nH]c2ccccc12)NC(=O)[C@H](CCC(N)=O)NC(=O)[C@@H](Cc1ccccc1)NC(=O)COCC(=O)Nc1ccc(CNC(=O)COCCOCCNC(=O)COCCOCCNC(=O)[C@H](CCCCNC(=O)CN2CCN(CC(=O)O)CCN(CC(=O)O)CCN(CC(=O)O)CC2)NC(=O)CCC(=O)N2CCN(CCCOc3ccc4nccc(C(=O)NCC(=O)N5CC(F)(F)C[C@H]5C#N)c4c3)CC2)cc1)C(C)C` (stereo partly drawn) [SDYD03], the “KD values / binding affinity to the receptors (in words)” value [1] is reported as “relatively low KD values”, the Kd ([1]; BBN solution (GRPR inhibitor), read-out: KD value, Second single inhibition group (CXCR4/GRPR/αvβ3 single inhibition)) is reported as 1.76 ± 0.224 nM and the Kd ([1]; FAPI-04 solution, read-out: KD value, First single inhibition group (FAP single inhibition)) is reported as 0.884 ± 0.152 nM. The Kd ([1]; read-out: KD value, Non-inhibition group) was 1.23 ± 0.331 nM, the “cell uptake over incubation time (in words)” value ([2]; 15-120 minutes) was “increased slowly and reached a plateau from 15 to 120 minutes” and the “cell uptake, comparison of non-inhibition, FAP single, GRPR single and dual inhibition groups (in words)” value ([2]; FAPI-04 and BBN as inhibitors) was “cell uptake in the non-inhibition group was consistently higher than that in the other three groups”. The “inhibition rate, comparison of inhibition groups (in words)” value ([2]; FAPI-04 and BBN as inhibitors) was “inhibition rate of the dual inhibition group was higher than that of the FAP single inhibition group and the GRPR single inhibition group”, the “specific binding to FAP and GRPR (in words)” value ([2]; conclusion from inhibition groups) was “can specifically bind to both FAP and GRPR” and the “PI range of series of peaks” value [3] was 5.992-7.095.
